Test results published in patent US11324832B2, “Tripartite modulators of endosomal G protein-coupled receptors” (Endosome Therapeutics, Inc., priority 2015, dated 2022).
Where a SMILES comes first, the peptide text is derived from it. [ ]: non-standard residue; d: D form. The star is where a group is joined. X1 = CC(C)CCC[C@@H](C)[C@H]1CC[C@H]2[C@@H]3CC[C@H]4C[C@@H](O*)CC[C@]4(C)[C@H]3CC[C@]12C; PEG4 = NCCOCCOCCOCCOCCC(=O)O; PEG3 = NCCOCCOCCOCCC(=O)O

Experiments:
[1] = tested on: CFA-induced mechanical hyperalgesia in mice; assay: CFA-induced mechanical hyperalgesia in mice; format: in vivo, mouse; details: for effect on CFA-induced sustained mechanical hyperalgesia: endocytic inhibitor i.t. 36 h after CFA
Excerpt: (§1) Investigators were unaware of test agents.

[2] = tested on: capsaicin-evoked mechanical hyperalgesia in mice; assay: Capsaicin-evoked mechanical hyperalgesia and edema in mice
NK1R = NK1R (Rattus norvegicus, UniProt P14600); assay: FRET biosensors of compartmentalized signaling (ERK, PKC, cAMP) in NK1R-expressing HEK293 cells; format: cell-based; parameters: Full length and truncated 6312 rat HA-NK1R have been described; expressed in transfected cells; host or cells: HEK293 (transient); details: for effect on SP activation of cytosolic ERK / effect on SP-induced plasma membrane cAMP / effect on plasma membrane PKC activity: endocytic inhibitor plus SP 1 nM; for effect on SP stimulation of cytosolic PKC / effect on SP stimulation of cytosolic cAMP / effect on SP stimulation of nuclear ERK: endocytic or signaling inhibitor plus SP 1 nM
NK1R, sequence (P14600 whole entry, the tested form may be a part): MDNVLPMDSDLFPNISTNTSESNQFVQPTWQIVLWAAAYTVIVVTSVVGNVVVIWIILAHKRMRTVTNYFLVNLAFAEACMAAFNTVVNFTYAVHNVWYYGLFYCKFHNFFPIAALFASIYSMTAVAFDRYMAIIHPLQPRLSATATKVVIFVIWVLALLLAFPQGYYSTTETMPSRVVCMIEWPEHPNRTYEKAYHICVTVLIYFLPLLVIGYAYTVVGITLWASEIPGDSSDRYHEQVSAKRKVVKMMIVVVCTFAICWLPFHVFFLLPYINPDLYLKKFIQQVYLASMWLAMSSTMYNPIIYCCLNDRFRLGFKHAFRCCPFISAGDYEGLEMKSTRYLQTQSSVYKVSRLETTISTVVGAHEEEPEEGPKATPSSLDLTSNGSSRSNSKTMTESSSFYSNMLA
Procedure: To study the link between NK1R trafficking and signaling, the NK1R and Förster Resonance Energy Transfer (FRET) biosensors targeted to detect activated ERK in the cytosol (CytoEKAR) or nucleus (NucEKAR, FIG. 2A), activated PKC at the plasma membrane (pmCKAR) or in the cytosol (CytoCKAR, FIG. 2C), and cAMP at the plasma membrane (pmEpac2) or in the cytosol (CytoEpac2, FIG. 2E) were expressed in HEK293 cells.
HEK293 cells were transfected with 55 ng/well rat NK1R with N-terminal HA. 11 epitope tag (HA-NK1R) or CLR plus RAMP1 and 40 ng/well FRET biosensors. FRET was assessed 48 h after transfection, following serum restriction (0.5% FBS overnight). For experiments using clathrin or dynamin siRNA, cells were transfected with 55 ng/well rat HA-NK1R, 40 ng/well FRET biosensor and 25 nM/well scrambled, clathrin or dynamin ON-TARGETplus SMARTpool siRNA (GE Dharmacon). FRET was assessed 72 h after transfection, following serum restriction (0.5% FBS overnight). Cells were equilibrated in HBSS at 37° C. and FRET was analyzed using a GE Healthcare INCell 2000 Analyzer. For GFP/RFP emission ratio analysis, cells were sequentially excited using a FITC filter (490/20) with emission measured using dsRed (605/52) and FITC (525/36) filters, and a polychroic optimized for the FITC/dsRed filter pair (Quad4). For CFP/YFP emission ratio analysis, cells were sequentially excited using a CFP filter (430/24) with emission measured using YFP (535/30) and CFP (470/24) filters, and a polychroic optimized for the CFP/YFP filter pair (Quad3). Cells were imaged every 1 min, allowing image capture of 14 wells per minute. Baseline emission ratio images were captured for 4 min. […] Cells were then stimulated with the positive control (200 nM phorbol 12,13-dibutyrate for ERK; 200 nM phorbol 12,13-dibutyrate with phosphatase inhibitor cocktail for PKC; 10 μM forskolin, 100 μM 3-isobutyl-1-methylxanthine, 100 nM PGE1 for cAMP) for 10 min to generate a maximal increase, and positive emission ratio images were captured for 4 min. Data were analyzed as described and expressed as emission ratios relative to baseline for each cell (F/F0). Cells with >10% change in F/F0 after stimulation with positive controls were selected for analysis.

[3] = tested on: formalin-evoked nocifensive behavior in mice; assay: Formalin-evoked nocifensive behavior in mice; format: in vivo, mouse; details: for effect on formalin-evoked nocifensive behavior: i.t. 30 min before intraplantar formalin
Excerpt: as §1

[4] = i.t. 36 h after intraplantar CFA
[5] = i.t. 3 h before intraplantar capsaicin
[6] = preincubated 30 min, then immediately challenged with SP
[7] = i.t. 30 min before intraplantar capsaicin

CC(=O)N[C@@H](CC(=O)O[C@H]1CC[C@@]2(C)[C@@H](CC[C@@H]3[C@@H]2CC[C@]2(C)[C@@H]([C@H](C)CCCC(C)C)CC[C@@H]32)C1)C(=O)NCCOCCOCCOCCOCCC(=O)NCCOCCOCCOCCC(=O)NCCOCCOCCOCCOCCC(=O)N[C@H](CCCNC(=N)N)C(=O)N1CCC[C@H]1C(=O)N[C@@H](CCCCN)C(=O)N1CCC[C@H]1C(=O)N[C@@H](CCC(N)=O)C(=O)N[C@@H](CCC(N)=O)C(=O)N[C@H](Cc1c[nH]c2ccccc12)C(=O)N[C@@H](Cc1ccccc1)C(=O)N[C@H](Cc1c[nH]c2ccccc12)C(=O)N[C@@H](CC(C)C)C(=O)N[C@@H](CC(C)C)C(N)=O [Compound 1] (Ac-D(X1)[PEG4][PEG3][PEG4][dR]PKPQQ[dW]F[dW]LL-NH2)
duration of analgesia [1, 4]: > 6 h | time after which analgesic [1, 4]: 4 h | delay of analgesia ([2]; i.t. 30 min after capsaicin): 3 h | duration of analgesia ([2]; i.t. 30 min after capsaicin): > 6 h | duration of inhibition of capsaicin-evoked hyperalgesia [2, 5]: > 120 min | effect on capsaicin-evoked mechanical hyperalgesia (von Frey, left paw) [2, 5]: markedly inhibited capsaicin-evoked hyperalgesia | antagonism of SP activation of cytosolic ERK, pre-incubation (NK1R; [6]): blocked activation of nuclear and cytosolic ERK | antagonism of SP activation of nuclear ERK, pre-incubation (NK1R; [6]): blocked activation of nuclear and cytosolic ERK | antagonism of SP activation of nuclear ERK, pulse incubation (NK1R; pulse incubated 30 min, washed, SP 4 h later): alone inhibited nuclear ERK | effect on formalin-evoked nocifensive behavior (both phases) ([3]; i.t. 3 h before intraplantar formalin): markedly inhibited both phases of nocifensive behavior

O=C(N/N=C/c1cc(O)c(O)cc1O)c1cc2ccccc2cc1O [Dy4]
effect on CFA-induced sustained mechanical hyperalgesia [1]: partially reversed | effect on capsaicin-evoked edema (left paw thickness) [2, 7]: unaffected | effect on capsaicin-evoked mechanical hyperalgesia (von Frey, left paw) [2, 7]: inhibited hyperalgesia | effect on SP activation of cytosolic ERK (NK1R): did not suppress SP activation of cytosolic ERK or plasma membrane cAMP, but caused both responses to become sustained | effect on SP-induced plasma membrane cAMP (NK1R): did not suppress SP activation of cytosolic ERK or plasma membrane cAMP, but caused both responses to become sustained | effect on plasma membrane PKC activity (NK1R): amplified plasma membrane PKC activity | effect on SP stimulation of cytosolic PKC (NK1R): abolished | effect on SP stimulation of cytosolic cAMP (NK1R): abolished | effect on SP stimulation of nuclear ERK (NK1R): abolished | effect on formalin-evoked nocifensive behavior [3]: inhibited both phases of nocifensive behavior

O=C1NC(=NS(=O)(=O)c2cccc3ccccc23)S/C1=C\c1ccc(Br)cc1 [PS2]
effect on CFA-induced sustained mechanical hyperalgesia [1]: partially reversed | effect on capsaicin-evoked edema (left paw thickness) [2, 7]: unaffected | effect on capsaicin-evoked mechanical hyperalgesia (von Frey, left paw) [2, 7]: inhibited hyperalgesia | effect on paw withdrawal responses of the uninjected right hind paw ([2]; intrathecal treatment): did not affect | effect on SP activation of cytosolic ERK (NK1R): did not suppress SP activation of cytosolic ERK or plasma membrane cAMP, but caused both responses to become sustained | effect on SP-induced plasma membrane cAMP (NK1R): did not suppress SP activation of cytosolic ERK or plasma membrane cAMP, but caused both responses to become sustained | effect on plasma membrane PKC activity (NK1R): amplified plasma membrane PKC activity | effect on SP stimulation of cytosolic PKC (NK1R): abolished | effect on SP stimulation of cytosolic cAMP (NK1R): abolished | effect on SP stimulation of nuclear ERK (NK1R): abolished | effect on formalin-evoked nocifensive behavior [3]: inhibited both phases of nocifensive behavior
